Assay results: the supplement of paper PMC10307832

Columns and labels:
Experiment in all cases: relative viability (nuclei count vs DMSO), 5 days (fraction); higher = more cells survive
[1] = compound: CC1=NC=CC(=C1)C2=CC=C(C=C2)CC(=O)NC3=CC=C(C=C3)C4=CN=CC=C4 [Wnt-C59] + CS(=O)(=O)CCNCc1ccc(-c2ccc3ncnc(Nc4ccc(OCc5cccc(F)c5)c(Cl)c4)c3c2)o1 [Lapatinib] (partner 2 µM)
How it was run: (§1)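 Lung cancer cell lines in 1536-well plates got either a single drug or a fixed anchor-drug dose together with five library-drug doses (not always all listed) in √10 steps, by pin tool, on the day after seeding. Nuclei were counted after 5 days, and relative viability is the treated-to-vehicle ratio of nuclei counts. Values are medians of duplicate plates.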

[2] = compound: CC1=NC=CC(=C1)C2=CC=C(C=C2)CC(=O)NC3=CC=C(C=C3)C4=CN=CC=C4 [Wnt-C59] + O=C(CCCCCCC(=O)Nc1ccccc1)NO [Vorinostat] (partner 1 µM)
How it was run: as §1

[3] = compound: CS(=O)(=O)CCNCc1ccc(-c2ccc3ncnc(Nc4ccc(OCc5cccc(F)c5)c(Cl)c4)c3c2)o1 [Lapatinib] + CS(=O)(=O)N1CCN(Cc2cc3nc(-c4cccc5[nH]ncc45)nc(N4CCOCC4)c3s2)CC1 [Pictilisib] (partner 1 µM)
How it was run: as §1

[4] = compound: CS(=O)(=O)CCNCc1ccc(-c2ccc3ncnc(Nc4ccc(OCc5cccc(F)c5)c(Cl)c4)c3c2)o1 [Lapatinib] + Cc1cc(Nc2cc(N3CCN(C)CC3)nc(Sc3ccc(NC(=O)C4CC4)cc3)n2)n[nH]1 [Tozasertib] (partner 0.1 µM)
How it was run: as §1

Row | Cell Line | relative viability ([1]; first compound 0.001 µM) | relative viability ([1]; first compound 0.01 µM) | relative viability ([1]; first compound 0.03162 µM) | relative viability ([1]; first compound 0.1 µM) | relative viability ([2]; first compound 0.001 µM) | relative viability ([2]; first compound 0.01 µM) | relative viability ([2]; first compound 0.03162 µM) | relative viability ([2]; first compound 0.1 µM) | relative viability ([3]; first compound 0.02 µM) | relative viability ([3]; first compound 0.06325 µM) | relative viability ([3]; first compound 0.2 µM) | relative viability ([3]; first compound 0.6325 µM) | relative viability ([3]; first compound 2 µM) | relative viability ([4]; first compound 0.02 µM) | relative viability ([4]; first compound 0.06325 µM) | relative viability ([4]; first compound 0.2 µM) | relative viability ([4]; first compound 0.6325 µM) | relative viability ([4]; first compound 2 µM)
1 | NCI-H2009 | 0.993 | 1.04 | 0.903 | 0.881 | 0.722 | 0.679 | 0.758 | 0.712 | 0.357 | 0.747 | 0.989 | 0.853 | 0.974 | 0.732 | 0.633 | 0.78 | 0.714 | 0.492
2 | NCI-H1915 | 0.88 | 0.939 | 1.03 | 0.944 | 0.487 | 0.492 | 0.629 | 0.526 | – | 0.909 | 0.982 | 0.981 | 0.949 | – | 0.367 | 0.437 | 0.383 | 0.319
3 | NCI-H650 | 0.532 | 0.846 | 0.895 | 0.873 | 0.45 | 0.449 | 0.464 | 0.448 | – | 0.918 | 0.888 | 0.782 | 1.04 | – | 0.648 | 0.781 | 0.698 | 0.601
4 | NCI-H3122 | 0.967 | 1.07 | 0.993 | 1.04 | 1.05 | 1.05 | 0.989 | 0.971 | 0.564 | 0.481 | 0.636 | 0.603 | 0.751 | – | 0.366 | 0.479 | 0.341 | 0.349
5 | NCI-H2085 | 0.8 | 0.726 | 0.771 | 0.819 | 0.758 | 0.717 | 0.811 | 0.756 | 0.389 | 0.454 | 0.553 | 0.54 | 0.45 | – | 0.748 | 0.73 | 0.532 | 0.337
6 | NCI-H1395 | 1.03 | 0.972 | 1.1 | 0.991 | 0.724 | 0.675 | 0.564 | 1.1 | – | 0.66 | 0.527 | 0.696 | 0.583 | 0.716 | 0.774 | 0.701 | 0.683 | 0.677
7 | NCI-H1650 | 0.761 | 0.74 | 0.708 | 0.698 | 0.69 | 0.638 | 0.606 | 0.516 | 0.253 | 0.415 | 0.672 | 0.663 | 0.503 | 0.354 | 0.325 | 0.399 | 0.288 | 0.168
8 | EKVX | 0.244 | 0.183 | 0.151 | 0.206 | 0.805 | 0.585 | 0.574 | 0.557 | 0.41 | 0.322 | 0.376 | 0.345 | 0.177 | 0.366 | 0.333 | 0.448 | 0.273 | 0.143
9 | HCC-15 | 0.859 | 0.91 | 0.774 | 0.823 | 0.851 | 0.817 | 1.05 | 0.892 | – | 0.734 | 0.767 | 0.725 | 0.638 | – | 0.382 | 0.371 | 0.424 | 0.283
10 | LK-2 | 0.853 | 0.913 | 0.799 | 0.864 | 0.441 | 0.295 | 0.3 | 0.233 | – | – | 0.424 | 0.615 | 0.531 | – | – | 0.174 | 0.146 | 0.19
11 | SK-MES-1 | 0.543 | 0.5 | 0.467 | 0.448 | 1.12 | 1.11 | 1.21 | 1.03 | 0.36 | 0.3 | 0.235 | 0.257 | 0.199 | 0.894 | 0.996 | 1.07 | 0.943 | 0.495
12 | COR-L23 | 1.04 | 0.851 | 1.05 | 0.797 | 0.457 | 0.452 | 0.624 | 0.454 | 0.681 | 0.583 | 0.984 | 0.92 | 0.733 | 0.149 | 0.131 | 0.152 | 0.165 | 0.109
13 | NCI-H1355 | 1.04 | 0.922 | 1.05 | 0.842 | 0.639 | 0.529 | 0.601 | 0.596 | – | 0.419 | 0.496 | 0.499 | 0.285 | – | 0.416 | 0.498 | 0.494 | 0.26
14 | NCI-H322M | 0.638 | 0.585 | 0.594 | 0.538 | 0.86 | 0.816 | 0.746 | 0.93 | 0.555 | 0.31 | 0.483 | 0.504 | 0.404 | 0.437 | 0.457 | 0.395 | 0.477 | 0.343
15 | NCI-H1993 | 0.734 | 0.832 | 0.852 | 0.825 | 0.78 | 0.758 | 0.978 | 0.394 | 0.715 | – | 0.808 | 0.812 | 0.977 | 0.518 | – | 0.574 | 0.518 | 0.486
16 | LOU-NH91 | 0.76 | 0.709 | 0.768 | 0.771 | 0.868 | 0.864 | 0.886 | 0.978 | 0.395 | 0.451 | 0.425 | 0.513 | 0.447 | 0.643 | 0.504 | 0.524 | 0.51 | 0.427
17 | 201T | 0.985 | 1.04 | 1.03 | 0.991 | 0.979 | 0.991 | 1.03 | 0.983 | 0.603 | 0.656 | 0.675 | 0.659 | 0.638 | 0.967 | 0.716 | 0.886 | 0.923 | 0.792
18 | LXF-289 | 0.925 | 0.903 | 0.891 | 0.849 | 0.72 | 0.766 | 0.783 | 0.801 | 0.762 | 0.717 | 0.744 | 0.784 | 0.737 | 0.178 | 0.155 | 0.177 | 0.173 | 0.168
